Tests used:
[1] = molecular target: FTase (Homo sapiens, UniProt P49354+P49356); conditions: read-out: FTase IC50; cited from earlier work
[2] = molecular target: GGTase I (Homo sapiens, UniProt P49354+P53609); conditions: read-out: GGTase I / PGGTase-I IC50; cited from earlier work
[3] = test system: SH-SY5Y cells; test: MTT cell viability of 6-OHDA treated SH-SY5Y cells; assay type: cell-based, human
Description: To test whether inhibition of Ras farnesylation could protect SH-SY5Y cells against 6-OHDA induced oxidative stress, a Ras farnesyltransferase inhibitor, L-744,832, was used in 6-OHDA treated SH-SY5Y cells.
SH-SY5Y cells were plated in 24 well plates (ATGC, France) at the initial density of 3*10^5 cells/well. After 24 hours, cells were pretreated with L-744,832 for 6 hours at concentrations ranging from 20 nM to 40 μM. Then, 6-OHDA (Sigma) diluted in PBS was added to the wells at the concentration of 50 μM. After 17 h incubation, an MTT assay was conducted to reveal cell viability, which was measured as normalized optical densities values (treated cells/untreated control cells), where a value of 1 represents 100% neuronal survival and a value of 0.6 represents 60% survival.

[4] = cell-based assays (Law et al. 2000; Birkenkamp et al. 2004); cited from earlier work
[5] = test system: mammary tumors; conditions: cited from earlier work

CC(=O)N(c1ccc(C)cc1)c1ccc(NC(=O)CCCCc2ccccc2)cc1C(=O)c1ccccc1
IC50 [1]: 390 nM

CSCC[C@@H](NC(=O)[C@H]1Cc2ccccc2CN1C(=O)[C@@H](NCCc1c[nH]cn1)C(C)C)C(=O)O (relative stereo) [BMS-193269, (R*)-N-[[1,2,3,4-Tetrahydro-2-[N-[2-(1H-imidazol-4-yl)ethyl]-L-valyl]-3-isoquinolinyl]carbonyl]-L-methionine]
IC50 [1]: 0.79 nM

O=[N+]([O-])[C@H]1C(c2ccccc2Br)CCN(Cc2cccnc2)[C@@H]1c1ccc(O)c(O)c1 (single isomer, unassigned; (+)) [(+)-4-(2-Bromophenyl)-2-(3,4-dihydroxyphenyl)-3-nitro-1-(3-pyridylmethyl)piperidine]
IC50 [1]: 1.9 nM

CSCCC(NC(=O)C(C=CC(C=CC(N)CS)C(C)C)Cc1ccccc1)C(=O)O (stereo not drawn) [B956]
IC50 [1]: 11 nM

CSCC[C@H](NC(=O)[C@@H](NC(=O)[C@@H](NC(=O)CCP(=O)(O)C/C=C(\C)CC/C=C(\C)CCC=C(C)C)C(C)C)C(C)C)C(=O)O [BMS-186511]
IC50 [1]: 10 nM

CSCC[C@H](NC(=O)CN1C[C@H](N(C)C(=O)[C@H](N)CS)N=C(c2ccccc2)c2ccccc21)C(=O)O [BZA-2B]
IC50 [1]: 0.85 nM

CC(C)C[C@H](NC(=O)CN1C[C@H](N(C)C(=O)[C@H](N)CS)N=C(c2ccccc2)c2ccccc21)C(=O)O [BZA-4B]
IC50 [1]: 1.3 nM

CSCC[C@H](NC(=O)c1ccc(NC(=O)[C@@H](N)CS)cc1)C(=O)O [FTI-232, Cys-4-ABA-Met]
IC50 [1]: 50 nM

CSCC[C@H](NC(=O)c1ccc(NC[C@@H](N)CS)cc1)C(=O)O [FTI-249]
IC50 [1]: 50 nM

COC(=O)[C@H](CCSC)NC(=O)c1ccc(NC[C@@H](N)CS)cc1-c1ccccc1 [FTI-277]
IC50 [1]: 100 nM

CC(C)C[C@H](NC(=O)c1ccc(NC[C@@H](N)CS)cc1-c1ccccc1)C(=O)O [GGTI-287]
IC50 [2]: 5 nM

C[C@H]([C@H](C/C=C/c1nc2ccccc2o1)c1ccc2c(c1)OCO2)N(Cc1ccc2ccccc2c1)C(=O)[C@H]1OC(C(=O)O)(C(=O)O)O[C@@H]1C(=O)O [J-104,134]
IC50 [1]: 5 nM

C[C@H]([C@H](C/C=C/c1nc2ccccc2o1)c1ccc2c(c1)OCO2)N(Cc1ccc2ccccc2c1)C(=O)[C@H]1OC(C(=O)O)(C(=O)O)O[C@@H]1C(=O)O [J-104,135]
IC50 [1]: 3.9 nM

CCC(C)C(COC(Cc1ccccc1)C(=O)NC(CCS(C)(=O)=O)C(=O)O)NCC(N)CS [L-739,750]
IC50 [1]: 1.8 nM

CC[C@H](C)[C@@H](CO[C@@H](Cc1ccccc1)C(=O)N[C@@H](CCS(C)(=O)=O)C(=O)OC(C)C)NC[C@@H](N)CS [L-744,832, (2S)-2-[[(2S)-2-[[(2S,3S)-2-[[(2R)-2-Amino-3-mercaptopropyl]amino]-3-methylpentyl]oxy]-1-oxo-3-phenylpropyl]amino]-4-(methylsulfonyl)-butanoic acid 1-methylethyl ester]
toxicity for SH-SY5Y cells ([3]; SH-SY5Y cells): non toxic
survival ratio ([3]; SH-SY5Y, 6 h pretreatment with L-744,832 (20 nM to 40 μM), 6-OHDA 50 μM, 17 h, MTT, control 38%): 53%
protective effect against cell death induced by ROS (in words) ([3]; overnight treatment with 6-OHDA, FIG. 1): significant protective effect
protective effect ([3]; overnight treatment with 6-OHDA, SH-SY5Y, MTT): 24%
reported active concentration [4]: 25 to 60 µM
p70s6k phosphorylation in mammary tumors ([5]; in vivo): inhibits
tumor regression ([5]; transgenic mice): induces tumor regression

COC(=O)[C@H](CCSC)N(C(=O)c1ccccc1)C1CCN(C(=O)[C@@H](N)CS)CC1 [Methyl N-benzoyl-N-(piperidin-4-yl-N-(R)-cysteinyl)-(S) methioninate]
IC50 [1]: 20 nM

Cn1cncc1C(N)(c1ccc(Cl)cc1)c1ccc2c(c1)c(-c1cccc(Cl)c1)cc(=O)n2C (stereo not drawn) [R115777, 6-[Amino(4-chlorophenyl)-1-methyl-1H-imidazol-5-ylmethyl]-4-(3-chlorophenyl)-1-methyl-2(1H)-quinolinone]
IC50 [1]: 0.86 nM

C=C(CCC12OC(C(=O)O)C(O)(C(=O)O)C(C(=O)O)(O1)C(OC(=O)C=CC(C)CC(C)CC)C2O)C(OC(C)=O)C(C)Cc1ccccc1 [Zaragozic acid, L-erythro-L-Glycero-D-altro-7-trideculo-7,4-furanosonic acid, 2,7-anhydro-3,4-di-C-carboxy-8,9,10,12,13-pentadeoxy-10-methylene-12-(phenylmethyl)-,11-acetate 5-(4,6-dimethyl-2-octenoate), [5(2E,4S,6S),7S]]
IC50 [1]: 50 nM
